Laboratory results taken from patent US20080188449A1, “Treatment of Conditions Caused By Calcium Abnormalities” (priority 2004, published 2008).

Key:
polycystin-2 [1] = biological target: T1, polycystin-2 (Mus musculus, UniProt O35245); test: Fluo-4 calcium imaging in murine kidney epithelial cells; format: cell-based; conditions: 100 nM perfused, Pkd1^−/− cells
T1 construct: murine cell lines were derived from knockout and transgenic mice as previously reported; endogenous in cells; host or cells: Murine kidney proximal tubule epithelial cells, Pkd1-/- (MN24)
T1 sequence (O35245 1-966): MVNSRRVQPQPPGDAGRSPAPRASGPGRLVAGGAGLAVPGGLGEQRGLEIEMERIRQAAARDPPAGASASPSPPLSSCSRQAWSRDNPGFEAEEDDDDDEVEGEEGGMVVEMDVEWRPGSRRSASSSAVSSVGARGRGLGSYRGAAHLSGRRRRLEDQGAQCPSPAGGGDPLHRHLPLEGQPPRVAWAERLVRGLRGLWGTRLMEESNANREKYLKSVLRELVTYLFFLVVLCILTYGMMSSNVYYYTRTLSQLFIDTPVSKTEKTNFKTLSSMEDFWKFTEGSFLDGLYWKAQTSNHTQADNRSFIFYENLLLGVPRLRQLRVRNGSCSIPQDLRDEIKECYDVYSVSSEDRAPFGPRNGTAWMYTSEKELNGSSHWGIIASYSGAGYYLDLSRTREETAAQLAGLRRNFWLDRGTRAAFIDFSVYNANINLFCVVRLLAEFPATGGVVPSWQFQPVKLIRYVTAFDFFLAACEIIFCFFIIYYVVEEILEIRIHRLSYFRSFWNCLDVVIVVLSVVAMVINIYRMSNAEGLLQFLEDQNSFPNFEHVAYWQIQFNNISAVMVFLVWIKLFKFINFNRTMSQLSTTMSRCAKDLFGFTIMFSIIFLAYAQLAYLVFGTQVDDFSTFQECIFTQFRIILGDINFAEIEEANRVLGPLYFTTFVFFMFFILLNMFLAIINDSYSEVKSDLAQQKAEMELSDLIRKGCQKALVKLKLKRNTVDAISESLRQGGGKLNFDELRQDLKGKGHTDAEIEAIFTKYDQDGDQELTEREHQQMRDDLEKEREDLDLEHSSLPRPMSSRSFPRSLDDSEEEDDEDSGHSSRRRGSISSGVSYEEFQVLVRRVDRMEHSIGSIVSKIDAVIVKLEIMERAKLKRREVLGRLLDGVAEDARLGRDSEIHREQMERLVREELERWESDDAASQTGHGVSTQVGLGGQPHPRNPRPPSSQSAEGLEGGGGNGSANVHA
Text: (§1) Murine kidney epithelial cell lines with differing polycystin-1 or polycystin-2 expression were used to establish a cellular based mechanism for polycystin-2 mediated calcium release in response to triptolide. Because the biochemical purification analysis identified polycystin-2 as a putative triptolide binding protein, Applicants assessed whether the calcium release was dependent upon expression of polycystin-1. Epithelial cells derived from the proximal nephric tubules of Pkd1^−/− mice were first examined to determine if calcium release was observed when 100 nM of triptolide was perfused through the imaging chamber. […] To strengthen the evidence that polycystin-2 was necessary for calcium release elicited by triptolide addition, it was reconstituted by stable expression of Pkd2 into the background of Pkd2^−/− cells, which were assessed for sensitivity to triptolide.
(§2) Cells were plated on coverslips and loaded with Fluo-4 (Molecular Probes) diluted in DMSO/pluronic for 30 minutes prior to imaging. Cells were perfused with a calcium imaging buffer (HEPES, NaCl, KCl, MgSO4 and CaCl2)±100 nM triptolide. All cell traces are indicative of individual cellular fluorescence and calcium release. Data is presented as change of fluorescence over baseline control (no triptolide addition).

polycystin-2 [2] = test: as above; format: cell-based
Text: as §1, §2

CC(C)[C@]12O[C@H]1[C@@H]1O[C@]13[C@]1(O[C@H]1C[C@H]1C4=C(CC[C@@]13C)C(=O)OC4)[C@@H]2O [triptolide, Triptolide]
calcium release (polycystin-2 [1]): clear rise in intracellular calcium levels | calcium release (polycystin-2 [2]; 100 nM perfused, Pkd2^−/− cells): no calcium release was detected | calcium release (polycystin-2 [2]; 100 nM, Pkd2 re-expressed in Pkd2^−/− cells): restored calcium release
